Converted amounts (≈) assume the structure as drawn. Like-named read-outs stand apart in the source and are kept apart here.
Legend:
[1] = system: lipoprotein lipase (LPL) gene; assay: LPL mRNA elevating action (RT-PCR quantification of LPL mRNA in C2Cl2 cells); assay type: cell-based, mouse; details: Mus musculus, 24 h, compound 10 μM, ratio relative to the amount of LPL mRNA in cells with DMSO only, read-out: Rate of increase in LPL mRNA
Protocol: LPL mRNA Elevating Action
C2Cl2 cells (cell strain derived from striated muscle of mouse) were seeded in 96-well plates using a DMEM medium (Gibco) (containing 2 mM L-glutamine and 10% fetal bovine serum). After the cells were grown, the medium was removed. Subsequently, media obtained by adding dimethyl sulfoxide (DMSO) solutions of the compounds to the same medium as described above to a concentration of 10 μM were individually added to the cells and allowed to stand for 24 hours. The compound-containing media were removed, and the plates were washed with phosphate buffered saline. Thereafter, the remaining cells were lysed and subjected to a reverse transcription polymerase chain reaction (RT-PCR reaction) to obtain cDNA. Primers specific to lipoprotein lipase (LPL) gene, a necessary enzyme, etc., were added to the obtained cDNA. The mixture was set in 7500 Fast Real Time PCR System produced by Applied Biosystem to perform a PCR reaction (20 cycles) and the amount of LPL mRNA amplified was quantified. The LPL mRNA elevating action of each compound in the test cells was indicated as the ratio relative to the amount of LPL mRNA in cells allowed to stand in a medium to which only DMSO was added, with the amount being defined as 1.
As Comparative Example 1, a test was performed in the same manner as above, using a compound disclosed as the compound of Example 57 in WO2010/090200.

[2] = Solubility in gastric juice or intestinal juice model fluid (precipitation method using DMSO); assay type: physicochemical; details: room temperature
Protocol: Solubility in Gastric Juice or Intestinal Juice Model Fluid
Measurement was performed by a precipitation method using DMSO. Specifically, each of the dimethyl sulfoxide (DMSO) solutions of the compounds was individually added to 1st fluid for Disintegration Test of Japanese Pharmacopoeia (pH: 1.2) or 2nd fluid for Disintegration Test of Japanese Pharmacopoeia (pH: 6.8), and the mixtures were stirred by shaking at room temperature for 24 hours. Subsequently, insoluble substances in each mixture were removed by filtration, and the UV absorption of each filtrate was measured. The obtained values were individually applied to the calibration curves of the compounds prepared in advance to calculate the concentrations of the compounds dissolved (μg/mL).

[3] = pH 1.2, simulated gastric fluid, kinetic from dmso stock, 1st fluid for Disintegration Test of Japanese Pharmacopoeia (pH: 1.2), read-out: Solubility (μg/mL) 1st fluid
[4] = pH 6.8, kinetic from dmso stock, 2nd fluid for Disintegration Test of Japanese Pharmacopoeia (pH: 6.8), read-out: Solubility (μg/mL) 2nd fluid

| solubility at 24 h [2, 3] [µg/mL] | solubility at 24 h [2, 4] [µg/mL] | melting point | Solubility (μg/mL) 1st fluid ([2]; 1st fluid for Disintegration Test of Japanese Pharmacopoeia (pH: 1.2), 24 hours) [µg/mL] | Solubility (μg/mL) 2nd fluid ([2]; 2nd fluid for Disintegration Test of Japanese Pharmacopoeia (pH: 6.8), 24 hours) [µg/mL] | Structure (SMILES) | fold induction at 10 µM [1] |
| --- | --- | --- | --- | --- | --- | --- |
| 87.5 (≈ 193 µM) | 1 (≈ 2.21 µM) | – | – | – | COc1cc(OCc2ccc(C(F)(F)F)nc2)ccc1-c1cnc(C2CCC(F)(F)C2)[nH]1 (stereo not drawn) [Example 3] | 2.48 |
| > 73 | 4 (≈ 10.9 µM) | 172 to 175 °C | – | – | COc1cc(OCn2cccn2)ccc1-c1c[nH]c(-c2ccc(F)nc2)n1 [Example 120] | – |
| 7.1 (≈ 15 µM) | 5.6 (≈ 11.9 µM) | 172 to 176 °C | – | – | COc1cc(OCc2ccc(Br)cc2F)ccc1-c1c[nH]c(-c2ccc(F)nc2)n1 [Example 126] | – |
| 39.9 (≈ 89.8 µM) | 36.1 (≈ 81.2 µM) | 210 to 212 °C (dec.) | – | – | COc1cc(OCc2cncc(C(F)(F)F)c2)ccc1-c1cnc(-c2ccc(F)nc2)[nH]1 [Example 137] | – |
| – | – | – | – | – | COc1cc(OCc2ncc(Cl)cc2C(F)(F)F)ccc1-c1cnc(-c2ccc(F)nc2)[nH]1 [Example 138] | 2.97 |
| 5 (≈ 10.8 µM) | < 0.3 | > 230 °C | – | – | COc1cc(OCc2ncc(C(F)(F)F)cc2F)ccc1-c1cnc(-c2ccc(F)nc2)[nH]1 [Example 139, 3-fluoro-2-[[4-(2-(6-fluoropyridin-3-yl)-1H-imidazol-5-yl)-3-methoxyphenoxy]methyl]-5-(trifluoromethyl)pyridine] | – |
| 7.8 (≈ 18.9 µM) | 4.8 (≈ 11.6 µM) | 188 to 191 °C | – | – | COc1cc(OCc2ncc(F)cc2F)ccc1-c1cnc(-c2ccc(F)nc2)[nH]1 [Example 140] | – |
| 2.4 (≈ 5.32 µM) | 0.3 (≈ 0.665 µM) | 241 to 244 °C (dec.) | – | – | COc1cc(OCc2ccc(C(F)(F)F)cn2)ccc1-c1cnc(-c2ccc(C#N)nc2)[nH]1 [Example 150, 5-[5-[2-methoxy-4-((5-(trifluoromethyl)pyridin-2-yl)methoxy)phenyl]-1H-imidazol-2-yl]picolinonitrile] | – |
| > 92 | 0.9 (≈ 1.96 µM) | 168 to 171 °C | – | – | COc1cc(OCc2ccc(C(F)(F)F)cn2)ccc1-c1cn(C)c(-c2ccc(F)nc2)n1 [Example 151, 2-fluoro-5-[4-[2-methoxy-4-((5-(trifluoromethyl)pyridin-2-yl)methoxy)phenyl]-1-methyl-1H-imidazol-2-yl]pyridine] | – |
| > 94 | 4 (≈ 8.47 µM) | 136 to 138 °C | – | – | COc1cc(OCc2ccc(C(F)(F)F)cn2)ccc1-c1c(C)nc(-c2ccc(F)nc2)n1C [Example 159] | – |
| > 92 | 1.4 (≈ 3.05 µM) | 163 to 165 °C | – | – | COc1cc(OCc2ccc(C(F)(F)F)nc2)ccc1-c1cn(C)c(-c2ccc(F)nc2)n1 [Example 163] | – |
| > 98 | 0.6 (≈ 1.23 µM) | 172 to 174 °C | – | – | COCn1cc(-c2ccc(OCc3ccc(C(F)(F)F)cn3)cc2OC)nc1-c1ccc(F)nc1 [Example 166] | – |
| > 95 | < 0.3 | 186 to 190 °C | – | – | COc1cc(OCc2ccc(C(F)(F)F)cn2)ccc1-c1cn(C)c(-c2ccc(Cl)nc2)n1 [Example 168] | – |
| 89.1 (≈ 183 µM) | 0.4 (≈ 0.82 µM) | 172 to 174 °C | – | – | COc1cc(OCc2ccc(C(F)(F)F)nc2)ccc1-c1[nH]c(C2CCC(F)(F)C2)nc1Cl (stereo not drawn) [Example 180] | – |
| 96.3 (≈ 191 µM) | 5.8 (≈ 11.5 µM) | 160 to 161 °C | – | – | COc1cc(OCc2ncccc2C#N)ccc1-c1[nH]c(C2CCC(F)(F)CC2)nc1Br [Example 184] | – |
| 75.6 (≈ 135 µM) | < 0.4 | 195 to 196 °C | – | – | COc1cc(OCc2ccc(C(F)(F)F)nc2)c(C)cc1-c1[nH]c(C2CCC(F)(F)CC2)nc1Br [Example 187] | – |
| 22.6 (≈ 43.8 µM) | 0.6 (≈ 1.16 µM) | 175 to 178 °C | – | – | COc1cc(OCc2ccc(C(F)(F)F)nc2)c(C)cc1-c1[nH]c(C2CCC(F)(F)CC2)nc1Cl [Example 192] | – |
| > 85 | < 7.5 | 182 to 184 °C | – | – | COc1cc(OCn2cccn2)ccc1-c1[nH]c(C2CCC(F)(F)CC2)nc1Cl [Example 196] | – |
| > 88 | 25.7 (≈ 58.7 µM) | 130 to 131 °C | – | – | COc1cc(OCc2coc(C)n2)ccc1-c1[nH]c(C2CCC(F)(F)CC2)nc1Cl [Example 197] | – |
| > 105 | < 0.4 | 176 to 178 °C | – | – | COc1cc(OCc2ccc(C(F)(F)F)cn2)ccc1-c1nc(-c2ccc(F)nc2)[nH]c1Br [Example 223] | – |

| solubility at 24 h [2, 3] [µg/mL] | solubility at 24 h [2, 4] [µg/mL] | melting point | Solubility (μg/mL) 1st fluid ([2]; 1st fluid for Disintegration Test of Japanese Pharmacopoeia (pH: 1.2), 24 hours) [µg/mL] | Solubility (μg/mL) 2nd fluid ([2]; 2nd fluid for Disintegration Test of Japanese Pharmacopoeia (pH: 6.8), 24 hours) [µg/mL] | Structure (SMILES) | fold induction at 10 µM [1] |
| --- | --- | --- | --- | --- | --- | --- |
| < 8.5 | 3.4 (≈ 7.1 µM) | 186 to 193 °C (dec.) | – | – | COc1cc(OCc2ccc(C(F)(F)F)nc2)ccc1-c1nc(-c2ccc(F)cn2)[nH]c1Cl [Example 226] | – |
| 9.7 (≈ 19.6 µM) | 2.6 (≈ 5.25 µM) | 193 to 196 °C | – | – | COc1cc(OCc2ccc(C(F)(F)F)nc2)ccc1-c1nc(-c2ccc(Cl)cn2)[nH]c1Cl [Example 228] | – |
| < 0.3 | 29.9 (≈ 60.8 µM) | 137 to 146 °C | – | – | COc1cc(OC(C)c2ccc(C(F)(F)F)cc2)ccc1-c1[nH]c(-c2ccc(F)nc2)nc1Cl (stereo not drawn) [Example 236] | – |
| – | – | 165 to 168 °C | 12 (≈ 24.3 µM) | <0.4 | COc1cc(OC(C)c2ccc(C(F)(F)F)cn2)ccc1-c1[nH]c(-c2ccc(F)nc2)nc1Cl (stereo not drawn) [Example 240] | – |
| 90.2 (≈ 176 µM) | 11.7 (≈ 22.8 µM) | 116 to 131 °C | – | – | COc1cc(OCc2ncc(C(F)(F)F)cc2F)ccc1-c1[nH]c(-c2ccc(Cl)nc2)nc1Cl [Example 245] | – |
| 15.6 (≈ 30.7 µM) | 5 (≈ 9.85 µM) | 190 to 193 °C | – | – | COc1cc(OCc2ncc(F)cc2F)ccc1-c1[nH]c(-c2ccc(Cl)nc2)nc1Br [Example 246] | – |
| 96 (≈ 183 µM) | 4.2 (≈ 8.03 µM) | 144 to 154 °C | – | – | COc1cc(OCc2ncccc2C(F)(F)F)ccc1-c1[nH]c(-c2ccc(F)nc2)nc1Br [Example 275] | – |
| < 0.3 | 23.4 (≈ 47.6 µM) | 137 to 139 °C | – | – | COc1cc(O[C@@H](C)c2ccc(C(F)(F)F)cc2)ccc1-c1[nH]c(-c2ccc(F)nc2)nc1Cl [Example 288] | – |
| 10.8 (≈ 21.1 µM) | 2.2 (≈ 4.31 µM) | 155 to 159 °C | – | – | COc1cc(OC(C)c2ncc(C(F)(F)F)cc2F)ccc1-c1[nH]c(-c2ccc(F)nc2)nc1Cl (stereo not drawn) [Example 289] | – |
| 9.9 (≈ 20.1 µM) | 3.5 (≈ 7.1 µM) | 74 to 97 °C | – | – | COc1cc(O[C@@H](C)c2ccc(C(F)(F)F)nc2)ccc1-c1[nH]c(-c2ccc(F)nc2)nc1Cl [Example 291] | – |
| 108 (≈ 196 µM) | 1.6 (≈ 2.89 µM) | 177 to 182 °C | – | – | COc1cc(OCc2ccc(C(F)(F)F)nc2)ccc1-c1nc(-c2ccc(Cl)nc2)n(C)c1Br [Example 298] | – |
| 24.7 (≈ 46 µM) | 0.4 (≈ 0.744 µM) | 134 to 136 °C | – | – | COc1cc(OCc2ccc(C(F)(F)F)nc2)ccc1-c1c(Br)nc(-c2ccc(F)nc2)n1C [Example 305] | – |
| 5.6 (≈ 11.4 µM) | < 0.4 | 138 to 140 °C | – | – | COc1cc(OCc2ccc(C(F)(F)F)nc2)ccc1-c1c(Cl)nc(-c2ccc(F)nc2)n1C [Example 311] | – |
| 23.6 (≈ 47.9 µM) | < 0.4 | 142 to 144 °C | – | – | COc1cc(OCc2ccc(C(F)(F)F)cn2)ccc1-c1c(Cl)nc(-c2ccc(F)nc2)n1C [Example 312] | – |
| – | – | – | – | – | COc1cc(OCc2ncc(C(F)(F)F)cc2F)ccc1-c1[nH]c(C2CC(F)(F)C2)nc1F [Example 401] | 2.9 |
| – | – | – | – | – | COc1cc(OCc2ncc(C(F)(F)F)cc2F)ccc1-c1cnc(-c2ccc(C)nc2)[nH]1 [Example 402] | 2.37 |
| – | – | – | – | – | COc1cc(-c2cnc(-c3ccc(C)nc3)[nH]2)ccc1OCc1ncc(C(F)(F)F)cc1F [Example 403] | 2.09 |
| – | – | – | – | – | COc1cc(OCc2ncc(C(F)(F)F)cc2F)ccc1-c1[nH]c(-c2ccc(C)nc2)nc1Cl [Example 404] | 3.26 |
| – | – | – | – | – | COc1cc(-c2[nH]c(-c3ccc(C)nc3)nc2Cl)ccc1OCc1ncc(C(F)(F)F)cc1F [Example 405] | 2.78 |

— US10570117B2, “Phenylimidazole compound” (Otsuka Pharmaceutical Factory, Inc., priority 2015, dated 2020)
